Measurements published in ChEMBL document CHEMBL1145330, “NMR structure of a potent small molecule inhibitor bound to human keratinocyte fatty acid-binding protein” (J Med Chem, 2006).

Columns and labels:
[1] = target: Fatty acid-binding protein 5 (Homo sapiens, UniProt Q01469); test: Binding affinity to human kFABP
[2] = target: Fatty acid-binding protein, adipocyte (Homo sapiens, UniProt P15090); test: Binding affinity to ap2
Sequence of Fatty acid-binding protein, adipocyte (P15090 whole entry): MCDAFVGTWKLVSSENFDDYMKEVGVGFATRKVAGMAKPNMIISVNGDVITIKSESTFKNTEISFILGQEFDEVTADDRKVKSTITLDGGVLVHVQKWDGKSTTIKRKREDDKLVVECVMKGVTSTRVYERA

Sequence of Fatty acid-binding protein 5 (Q01469 whole entry): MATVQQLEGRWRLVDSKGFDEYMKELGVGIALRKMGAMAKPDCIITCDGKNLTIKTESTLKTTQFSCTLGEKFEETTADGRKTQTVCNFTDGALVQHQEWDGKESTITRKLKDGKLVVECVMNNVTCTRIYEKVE

Ki [1] [nM] | Ki [2] [nM] | SMILES
> 2000 | > 2000 | OCC(O)c1cccc(OCc2ccccc2Cl)c1OCc1ccccc1Cl (stereo unspecified)
– | 16 | O=C(O)Cc1cccc(OCc2ccccc2Cl)c1OCc1ccccc1Cl
< 2 | < 2 | O=C(O)C(=O)c1cccc(OCc2ccccc2Cl)c1OCc1ccccc1Cl
– | 2.5 | O=C(O)[C@@H](O)c1cccc(OCc2ccccc2Cl)c1OCc1ccccc1Cl
